Measurements reported in patent US20060183693A1, “Use of BIBN4096 in combination with other antimigraine drugs for the treatment of migraine” (Boehringer Ingelheim Pharma GmbH & Co. KG, priority 2001, published 2006).

Test system: facial skin vasodilation induced by electrical trigeminal ganglion stimulation
Experiment: Facial skin blood flow (vasodilation) after electrical trigeminal ganglion stimulation, laser Doppler flowmetry
Format: in vivo
Details: anaesthetized male Wistar rat, 0.1 mg/kg i.v. 5 min prior to second stimulation
Method: Measurement of Facial Skin Blood Flow
Fasted male wistar rats (strain CHbb:THOM, 280-320 g) were anaesthetized with sodium pentobarbitone (initially with 60 mg/kg i.p. and maintained throughout the experiment with an intraperitoneal infusion of 30 mg/kg/h through a 23 G needle using a solution of 10 mg/ml). […] The trachea was cannulated and the animals were artificially respired (80 strokes/min) with room air supplemented with oxygen. The body temperature was maintained at 37° C. by an automated heating pad. The left femoral artery and the left femoral vein were cannulated for the continuous measurement of arterial blood pressure and intravenous administration of test compounds, respectively. Neuromuscular blockade was achieved by intravenous administration of pancuronium bromide (1 mg/kg/0.5 ml, 5 min prior to each electrical stimulation). Heart rate was derived from the blood pressure signal. Blood pressure and heart rate were continuously monitored throughout the course of the experiment to assess the level of anaesthesia and to monitor the cardiovascular effects of the drugs used in this study.
The animals were placed in a stereotaxic frame and a longitudinal incision was made in the scalp. […] The position of the electrodes in the trigeminal ganglia were checked visually at the end of each experiment following removal of the brain. […]

For `CN1C[C@H](C(=O)N[C@]2(C)O[C@@]3(O)[C@@H]4CCCN4C(=O)[C@H](Cc4ccccc4)N3C2=O)C[C@@H]2c3cccc4[nH]cc(c34)C[C@H]21` [DHE, Dihydroergotamin], the “% of trigeminus stimulation” value (mean ± spread) was 60.4 ± 4.1% and the “% inhibition compared to control value” (vs saline control) was 27.0%.
